Measured values from patent US20160000721A1, “GASTRO-RETENTIVE FORMULATIONS” (priority 2012, published 2016).
In brackets after ≈: the same amount, converted by molar mass.

Tests used:
[1] = Aqueous solubility of raltegravir at given pH; type: physicochemical
Excerpt: In one embodiment of the invention, the drug is raltegravir or pharmaceutically acceptable salt thereof. Raltegravir (N-(4-fluorobenzyl)-5-hydroxy-1-methyl-2-(1-methyl-1-{[(5-methyl-1,3,4-oxadiazol-2-yl)carbonyl]amino}ethyl)-6-oxo-1,6-dihydropyrimidine-4-carboxamide) belongs to a novel class of anti-retroviral drugs indicated for the treatment of human immunodeficiency virus (HIV-1) known as integrase strand inhibitors. See, e.g., U.S. Pat. No. 7,169,780. More particularly preferred is the anhydrous crystalline potassium salt of raltegravir, which is characterized by an X-ray powder diffraction pattern obtained using copper Kα radiation which comprises 2Θ values in degrees of 5.9, 20.0 and 20.6. See U.S. Pat. No. 7,754,731, herein incorporated by reference in its entirety. This form of raltegravir is the active pharmaceutical ingredient (API) in […]® tablets.

[2] = in vivo; cited from earlier work

Cc1nnc(C(=O)NC(C)(C)c2nc(C(=O)NCc3ccc(F)cc3)c(O)c(=O)n2C)o1 [Raltegravir, N-(4-fluorobenzyl)-5-hydroxy-1-methyl-2-(1-methyl-1-{[(5-methyl-1,3,4-oxadiazol-2-yl)carbonyl]amino}ethyl)-6-oxo-1,6-dihydropyrimidine-4-carboxamide]
solubility ([1]; aqueous buffer, pH range of 1-6): 20 µg/mL (≈ 45 µM)
solubility ([1]; pH 6.8, aqueous buffer): 480 µg/mL (≈ 1080 µM)
terminal half-life [2]: approximately 9 hours
α-phase half-life [2]: approximately 1 hour
